From ChEMBL document CHEMBL5360650, “Discovery of Small-Molecule TIM-3 Inhibitors for Acute Myeloid Leukemia Using Pharmacophore-Based Virtual Screening” (J Med Chem, 2023)
Active and inactive are the calls of the source. The rule behind the calls is not given here.

Assays:
[1] = target: T1, Hepatitis A virus cellular receptor 2 (Homo sapiens, UniProt Q8TDQ0); assay: Binding affinity to His-tagged recombinant human TIM3 expressed in HEK293 cells assessed as dissociation constant by sensor chip immobilization based SPR analysis
T1 sequence (Q8TDQ0 whole entry): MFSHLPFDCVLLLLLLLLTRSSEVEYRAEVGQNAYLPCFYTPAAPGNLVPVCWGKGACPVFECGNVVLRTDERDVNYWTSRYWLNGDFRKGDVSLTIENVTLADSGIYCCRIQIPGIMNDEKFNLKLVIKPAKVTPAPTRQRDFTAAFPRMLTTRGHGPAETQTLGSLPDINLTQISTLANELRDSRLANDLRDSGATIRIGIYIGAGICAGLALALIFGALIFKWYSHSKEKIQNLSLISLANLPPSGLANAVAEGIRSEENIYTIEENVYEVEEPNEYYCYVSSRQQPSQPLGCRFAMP

[2] = target: T1, Hepatitis A virus cellular receptor 2; assay: Binding affinity to His-tagged recombinant human TIM3 expressed in HEK293 cells assessed as dissociation constant by MST assay; assay type: cell-based
Homo sapiens = organism: Homo sapiens; assay: Inhibition of polyhis-tagged CEACAM1 binding to recombinant human TIM3 at 200 to 1000 nM preincubated with TIM3 for 1 hr followed by CEACAM1 addition measured after 1 hr by ELISA method; details: dose 200-1000 nM, time 2.0 hrs
[3] = target: Hepatitis A virus cellular receptor 2 (Homo sapiens) (UniProt Q8TDQ0); assay: Inhibition of AF647-labeled TIM3 (unknown origin) binding to ptdSer in staurosporine-induced human Jurkat cells at 200 to 1000 nM preincubated with TIM3 followed by cell culture addition by flow cytometry; assay type: cell-based; details: dose 200-1000 nM
THP-1 = assay: Inhibition of cell proliferation of human THP-1 NucLight Red cells at 5 uM by incucyte based immune cell killing assay; assay type: functional
[4] = target: Hepatitis A virus cellular receptor 2 (Homo sapiens) (UniProt Q8TDQ0); assay: Inhibition of recombinant human Gal-9 binding to biotinylated recombinant human TIM3 at 1 uM by competitive ELISA method
Kasumi 1 = assay: Inhibition of cell proliferation of human Kasumi 1 cocultured with 5 uM compound treated human PBMC cells by H3 thymidine uptake; assay type: functional, cell-based
[5] = target: Hepatitis A virus cellular receptor 2 (Homo sapiens) (UniProt Q8TDQ0); assay: Inhibition of recombinant TIM3 (unknown origin) cocultured in PBMC cells assessed as IFN-gamma release at 5 uM by ELISA method; assay type: cell-based

SMILES	Kd [1] [µM]	also measured
Cc1ccc(Nc2nc(C)cc(Nc3ccc(NC(=O)c4ccc5c(c4)OCO5)cc3)n2)cc1	17.3	
O=C(COc1ccccc1)Nc1cccc(-c2nc(-c3ccccc3)no2)c1	63.7	
COc1ccc(-c2noc(-c3cccc(OCC(=O)Nc4ccc(F)cc4)c3)n2)cc1	20.4	
COc1ccc(-c2noc(-c3ccccc3OCC(=O)Nc3cc(C)cc(C)c3)n2)cc1	28.9	
COc1ccc(-c2noc(-c3cccc(NC(=O)COc4ccccc4)c3)n2)cc1	12.7	
Cc1ccc(OCC(=O)Nc2cccc(-c3nc(-c4ccccc4)no3)c2)cc1	53.1	
COc1ccc(-c2noc(-c3cccc(OCC(=O)Nc4ccccc4F)c3)n2)cc1	27.6	
COc1cc(-c2cc(OC)c3c(C)oc(C)c3c(=O)c2)ccc1OC(=O)c1ccc(C)cc1	28.9	
Cc1cccc(-c2noc(-c3cccc(NC(=O)COc4ccccc4)c3)n2)c1	46.3	
Cc1ccc(-c2noc(-c3cccc(NC(=O)COc4ccccc4)c3)n2)cc1	42.4	

The next compounds have a lower Kd [1] than those just listed; values first:

Kd [1] [µM]	SMILES	also measured
11.6	COc1ccc(-c2noc(-c3cccc(OCC(=O)NCc4ccco4)c3)n2)cc1	
9.45	COc1ccc(-c2noc(-c3cccc(NC(=O)COc4ccc(C)cc4)c3)n2)cc1	
8.32	COc1ccc(-c2noc(-c3cccc(NC(=O)COc4ccccc4C)c3)n2)cc1	
6.04	COc1ccc(-c2noc(-c3cccc(NC(=O)COc4cccc(C)c4)c3)n2)cc1	
3.12	COc1ccc(-c2noc(-c3cccc(OCC(=O)Nc4cccc(C)c4)c3)n2)cc1	
2.47	COc1ccc(-c2noc(-c3cccc(OCC(=O)Nc4ccc(C)nc4)c3)n2)cc1	
2.01	COc1ccc(-c2noc(-c3cccc(OCC(=O)Nc4ccncc4)c3)n2)cc1	
1.63	COc1ccc(-c2noc(-c3cccc(OCC(=O)Nc4cccc(OC)c4)c3)n2)cc1	
1.35	CCOc1ccc(NC(=O)COc2cccc(-c3nc(-c4ccc(OC)cc4)no3)c2)cc1	
1.28	CCOc1ccc(NC(=O)COc2cccc(-c3noc(-c4ccc(OC)cc4)n3)c2)cc1	
0.98	COc1ccc(-c2noc(-c3cccc(OCC(=O)Nc4cc(OC)ccc4OC)c3)n2)cc1	
0.61	COc1ccc(-c2noc(-c3cccc(OCC(=O)Nc4ccc(OC)cc4OC)c3)n2)cc1	Kd [2]: 0.00058 µM; inhibition (Homo sapiens): Active; inhibition [3]: Active; inhibition (THP-1): Active; inhibition [4]: Active; inhibition (Kasumi 1): Active; inhibition [5]: Active
